We go through 19 molecules from ChEMBL document CHEMBL5291721, “A preclinical secondary pharmacology resource illuminates target-adverse drug reaction associations of marketed drugs” (Nat Commun, 2023).

Assay [1] addresses Neuronal acetylcholine receptor subunit alpha-4 (Homo sapiens, UniProt P43681).
Assay [2] addresses Growth hormone secretagogue receptor type 1 (Homo sapiens, UniProt Q92847).
The target of assay [3] is T1, Neuropeptide Y receptor type 1 (Homo sapiens, UniProt P25929).
T1 sequence (P25929 whole entry): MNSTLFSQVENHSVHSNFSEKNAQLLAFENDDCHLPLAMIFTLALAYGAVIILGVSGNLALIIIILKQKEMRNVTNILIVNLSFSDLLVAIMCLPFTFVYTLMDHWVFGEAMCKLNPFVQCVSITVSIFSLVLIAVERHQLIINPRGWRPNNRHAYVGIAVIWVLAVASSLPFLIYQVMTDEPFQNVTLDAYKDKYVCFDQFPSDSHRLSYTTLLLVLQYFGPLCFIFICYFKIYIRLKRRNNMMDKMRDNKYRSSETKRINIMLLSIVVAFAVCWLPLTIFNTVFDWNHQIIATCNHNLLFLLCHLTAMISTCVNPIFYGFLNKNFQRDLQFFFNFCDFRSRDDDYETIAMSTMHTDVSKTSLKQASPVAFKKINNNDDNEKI
As to conditions: read-out: AC50.

Assay [4] deals with Beta-2 adrenergic receptor (Homo sapiens, UniProt P07550). Type of assay: functional, cell-based.
Assay [5] has as its target D(3) dopamine receptor (Homo sapiens, UniProt P35462).
The target of assay [6] is Vasopressin V1a receptor (Homo sapiens, UniProt P37288).
Assay [7] has as its target T2, Type-1 angiotensin II receptor (Homo sapiens, UniProt P30556).
T2 sequence (P30556 whole entry): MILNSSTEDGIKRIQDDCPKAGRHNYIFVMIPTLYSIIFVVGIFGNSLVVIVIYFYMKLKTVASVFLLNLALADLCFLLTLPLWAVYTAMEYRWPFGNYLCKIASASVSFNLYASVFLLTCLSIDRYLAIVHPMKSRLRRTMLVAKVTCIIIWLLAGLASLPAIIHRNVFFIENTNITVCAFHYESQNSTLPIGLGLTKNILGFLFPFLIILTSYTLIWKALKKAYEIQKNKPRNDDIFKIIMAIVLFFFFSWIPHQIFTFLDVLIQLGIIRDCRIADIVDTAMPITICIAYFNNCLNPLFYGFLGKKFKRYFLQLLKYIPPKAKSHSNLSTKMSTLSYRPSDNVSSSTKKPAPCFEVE

The target in assay [8] is D(1A) dopamine receptor (Homo sapiens, UniProt P21728). Type of assay: functional, cell-based.
Assay [9] has as its target cGMP-inhibited 3',5'-cyclic phosphodiesterase 3A (Homo sapiens, UniProt Q14432). Type of assay: functional.
The target in assay [10] is T3, Prostaglandin G/H synthase 1 (Rattus norvegicus, UniProt Q63921).
T3 sequence (Q63921 whole entry): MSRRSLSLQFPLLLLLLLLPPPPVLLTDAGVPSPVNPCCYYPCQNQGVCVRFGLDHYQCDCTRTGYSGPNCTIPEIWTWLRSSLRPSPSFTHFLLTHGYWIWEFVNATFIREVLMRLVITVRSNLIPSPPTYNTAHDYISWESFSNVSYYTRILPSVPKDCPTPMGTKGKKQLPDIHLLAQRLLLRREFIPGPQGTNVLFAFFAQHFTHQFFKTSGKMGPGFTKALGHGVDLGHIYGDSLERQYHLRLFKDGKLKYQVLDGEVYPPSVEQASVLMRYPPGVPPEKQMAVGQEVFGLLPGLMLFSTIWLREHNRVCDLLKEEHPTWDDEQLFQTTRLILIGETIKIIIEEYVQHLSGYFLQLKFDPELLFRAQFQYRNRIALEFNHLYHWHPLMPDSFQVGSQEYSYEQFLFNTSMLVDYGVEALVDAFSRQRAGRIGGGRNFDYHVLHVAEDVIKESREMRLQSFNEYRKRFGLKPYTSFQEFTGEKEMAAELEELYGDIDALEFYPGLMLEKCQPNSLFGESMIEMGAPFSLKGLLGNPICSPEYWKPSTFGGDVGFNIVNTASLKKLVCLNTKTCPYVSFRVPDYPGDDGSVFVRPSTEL
Format: functional.

The target in assay [11] is T4, Amine oxidase [flavin-containing] A (Homo sapiens, UniProt P21397).
T4 sequence (P21397 whole entry): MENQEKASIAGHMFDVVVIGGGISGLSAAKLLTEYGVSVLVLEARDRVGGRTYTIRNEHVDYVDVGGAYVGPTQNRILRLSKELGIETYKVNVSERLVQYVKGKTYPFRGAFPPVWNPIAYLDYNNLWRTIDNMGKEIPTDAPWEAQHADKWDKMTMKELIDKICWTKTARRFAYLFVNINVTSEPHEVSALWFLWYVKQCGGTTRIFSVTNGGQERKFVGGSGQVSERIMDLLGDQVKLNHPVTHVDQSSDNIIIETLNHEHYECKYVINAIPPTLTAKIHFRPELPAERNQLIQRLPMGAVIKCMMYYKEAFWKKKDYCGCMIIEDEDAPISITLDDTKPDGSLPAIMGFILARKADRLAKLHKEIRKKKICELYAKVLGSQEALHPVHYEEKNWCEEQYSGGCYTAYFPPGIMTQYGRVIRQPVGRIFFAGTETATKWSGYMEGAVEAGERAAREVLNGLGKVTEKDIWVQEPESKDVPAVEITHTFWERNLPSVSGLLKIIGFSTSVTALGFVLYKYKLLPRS
Format: functional.

The target of assay [12] is Vascular endothelial growth factor receptor 2 (Homo sapiens, UniProt P35968). Format: functional.
Assay [13] addresses Melanocortin receptor 4 (Homo sapiens, UniProt P32245).
Note: assay procedure not described here.

Beta-2 adrenergic receptor, sequence (P07550 whole entry): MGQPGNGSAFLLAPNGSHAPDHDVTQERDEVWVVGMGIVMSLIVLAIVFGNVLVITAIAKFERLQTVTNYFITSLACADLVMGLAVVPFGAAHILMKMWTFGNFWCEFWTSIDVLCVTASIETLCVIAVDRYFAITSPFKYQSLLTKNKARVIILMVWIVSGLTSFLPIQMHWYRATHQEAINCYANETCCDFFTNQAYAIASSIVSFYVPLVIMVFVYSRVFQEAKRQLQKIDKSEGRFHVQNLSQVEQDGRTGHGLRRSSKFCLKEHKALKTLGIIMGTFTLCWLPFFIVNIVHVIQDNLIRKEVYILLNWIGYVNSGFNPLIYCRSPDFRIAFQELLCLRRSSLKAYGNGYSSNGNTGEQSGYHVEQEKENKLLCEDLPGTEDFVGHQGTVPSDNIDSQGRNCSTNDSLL
Vasopressin V1a receptor, sequence (P37288 whole entry): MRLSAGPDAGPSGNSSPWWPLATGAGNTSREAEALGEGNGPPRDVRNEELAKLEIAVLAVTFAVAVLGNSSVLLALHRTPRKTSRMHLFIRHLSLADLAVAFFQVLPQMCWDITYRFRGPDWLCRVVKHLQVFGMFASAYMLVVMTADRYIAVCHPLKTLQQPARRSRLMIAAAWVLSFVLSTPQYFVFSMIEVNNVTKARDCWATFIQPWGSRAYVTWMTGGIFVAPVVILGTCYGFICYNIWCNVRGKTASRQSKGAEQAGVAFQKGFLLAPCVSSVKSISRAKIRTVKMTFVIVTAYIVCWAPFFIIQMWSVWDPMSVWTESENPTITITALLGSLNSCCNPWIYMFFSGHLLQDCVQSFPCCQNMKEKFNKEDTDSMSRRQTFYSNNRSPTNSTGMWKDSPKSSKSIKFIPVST
D(1A) dopamine receptor, sequence (P21728 whole entry): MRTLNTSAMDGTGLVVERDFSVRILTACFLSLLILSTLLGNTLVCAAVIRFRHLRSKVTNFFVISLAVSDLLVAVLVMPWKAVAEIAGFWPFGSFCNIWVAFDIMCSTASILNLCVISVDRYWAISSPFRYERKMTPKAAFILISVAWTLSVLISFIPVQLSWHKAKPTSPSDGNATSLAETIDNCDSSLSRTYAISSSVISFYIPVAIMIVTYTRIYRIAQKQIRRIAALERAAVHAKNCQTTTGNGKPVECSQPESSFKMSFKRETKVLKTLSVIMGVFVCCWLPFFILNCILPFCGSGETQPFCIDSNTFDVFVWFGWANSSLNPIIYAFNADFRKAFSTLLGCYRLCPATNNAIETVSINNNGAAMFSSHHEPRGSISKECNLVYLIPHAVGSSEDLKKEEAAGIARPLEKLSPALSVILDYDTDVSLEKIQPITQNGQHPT
cGMP-inhibited 3',5'-cyclic phosphodiesterase 3A, sequence (Q14432 whole entry): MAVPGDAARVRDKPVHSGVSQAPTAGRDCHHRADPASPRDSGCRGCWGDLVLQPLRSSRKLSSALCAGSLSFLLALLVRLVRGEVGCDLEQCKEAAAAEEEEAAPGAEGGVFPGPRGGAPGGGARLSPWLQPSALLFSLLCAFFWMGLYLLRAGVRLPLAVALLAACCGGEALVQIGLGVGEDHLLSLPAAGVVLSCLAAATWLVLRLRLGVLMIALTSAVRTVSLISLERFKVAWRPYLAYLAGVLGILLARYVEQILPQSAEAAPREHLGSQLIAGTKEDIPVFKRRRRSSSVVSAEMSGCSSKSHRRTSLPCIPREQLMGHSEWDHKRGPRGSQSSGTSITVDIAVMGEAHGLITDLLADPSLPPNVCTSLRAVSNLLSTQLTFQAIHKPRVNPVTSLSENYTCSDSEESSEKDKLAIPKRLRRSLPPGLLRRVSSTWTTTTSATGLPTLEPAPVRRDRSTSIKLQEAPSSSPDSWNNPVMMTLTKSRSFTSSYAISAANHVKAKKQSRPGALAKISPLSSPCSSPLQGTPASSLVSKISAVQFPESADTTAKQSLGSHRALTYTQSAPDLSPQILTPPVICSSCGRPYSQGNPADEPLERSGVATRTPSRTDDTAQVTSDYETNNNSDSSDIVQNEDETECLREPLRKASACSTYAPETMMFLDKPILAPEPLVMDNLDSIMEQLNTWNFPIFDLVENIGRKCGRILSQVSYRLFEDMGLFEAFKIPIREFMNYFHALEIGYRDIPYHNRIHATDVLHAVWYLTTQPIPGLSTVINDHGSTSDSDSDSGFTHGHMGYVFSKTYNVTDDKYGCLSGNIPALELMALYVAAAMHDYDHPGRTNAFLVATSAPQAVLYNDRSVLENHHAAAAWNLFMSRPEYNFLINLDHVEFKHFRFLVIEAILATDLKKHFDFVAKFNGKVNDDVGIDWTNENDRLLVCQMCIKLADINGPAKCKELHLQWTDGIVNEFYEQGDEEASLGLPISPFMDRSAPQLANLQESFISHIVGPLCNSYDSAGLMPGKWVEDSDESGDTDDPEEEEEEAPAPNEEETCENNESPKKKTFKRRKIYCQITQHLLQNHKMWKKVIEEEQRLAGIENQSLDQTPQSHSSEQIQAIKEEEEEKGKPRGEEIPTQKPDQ
Vascular endothelial growth factor receptor 2, sequence (P35968 whole entry): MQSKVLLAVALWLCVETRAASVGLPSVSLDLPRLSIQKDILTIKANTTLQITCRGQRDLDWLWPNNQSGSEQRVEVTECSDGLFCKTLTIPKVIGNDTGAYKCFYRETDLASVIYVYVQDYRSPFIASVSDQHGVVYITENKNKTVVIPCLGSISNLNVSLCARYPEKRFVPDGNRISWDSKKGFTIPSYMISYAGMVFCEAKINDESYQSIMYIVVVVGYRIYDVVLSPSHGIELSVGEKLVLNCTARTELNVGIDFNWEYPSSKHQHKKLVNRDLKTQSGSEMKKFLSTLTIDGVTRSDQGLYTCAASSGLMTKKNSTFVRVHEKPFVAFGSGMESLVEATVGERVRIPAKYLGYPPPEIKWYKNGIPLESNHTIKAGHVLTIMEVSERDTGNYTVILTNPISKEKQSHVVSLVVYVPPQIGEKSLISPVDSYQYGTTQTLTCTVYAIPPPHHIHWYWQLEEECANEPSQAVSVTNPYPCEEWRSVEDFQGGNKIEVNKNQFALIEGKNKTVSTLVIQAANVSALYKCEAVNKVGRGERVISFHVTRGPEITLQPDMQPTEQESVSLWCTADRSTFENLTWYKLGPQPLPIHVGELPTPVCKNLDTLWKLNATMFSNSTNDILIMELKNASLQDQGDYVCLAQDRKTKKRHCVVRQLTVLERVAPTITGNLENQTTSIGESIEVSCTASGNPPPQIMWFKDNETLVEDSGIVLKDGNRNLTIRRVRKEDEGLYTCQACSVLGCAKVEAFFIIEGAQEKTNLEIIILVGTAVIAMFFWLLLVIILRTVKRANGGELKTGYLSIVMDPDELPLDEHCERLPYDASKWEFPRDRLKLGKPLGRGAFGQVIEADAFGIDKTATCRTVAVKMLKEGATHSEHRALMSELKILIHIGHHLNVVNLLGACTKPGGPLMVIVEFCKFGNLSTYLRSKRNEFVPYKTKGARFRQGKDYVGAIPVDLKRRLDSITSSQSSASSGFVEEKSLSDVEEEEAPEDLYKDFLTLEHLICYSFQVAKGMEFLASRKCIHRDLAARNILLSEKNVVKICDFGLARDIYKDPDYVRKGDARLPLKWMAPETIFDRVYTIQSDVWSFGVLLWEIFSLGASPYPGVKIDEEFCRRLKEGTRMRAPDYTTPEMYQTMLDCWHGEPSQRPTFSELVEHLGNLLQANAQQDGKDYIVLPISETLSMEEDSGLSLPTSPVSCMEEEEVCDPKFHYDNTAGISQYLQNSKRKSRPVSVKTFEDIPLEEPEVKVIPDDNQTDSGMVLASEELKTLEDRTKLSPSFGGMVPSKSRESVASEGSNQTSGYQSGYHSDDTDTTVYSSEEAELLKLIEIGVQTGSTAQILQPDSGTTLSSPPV
Growth hormone secretagogue receptor type 1, sequence (Q92847 whole entry): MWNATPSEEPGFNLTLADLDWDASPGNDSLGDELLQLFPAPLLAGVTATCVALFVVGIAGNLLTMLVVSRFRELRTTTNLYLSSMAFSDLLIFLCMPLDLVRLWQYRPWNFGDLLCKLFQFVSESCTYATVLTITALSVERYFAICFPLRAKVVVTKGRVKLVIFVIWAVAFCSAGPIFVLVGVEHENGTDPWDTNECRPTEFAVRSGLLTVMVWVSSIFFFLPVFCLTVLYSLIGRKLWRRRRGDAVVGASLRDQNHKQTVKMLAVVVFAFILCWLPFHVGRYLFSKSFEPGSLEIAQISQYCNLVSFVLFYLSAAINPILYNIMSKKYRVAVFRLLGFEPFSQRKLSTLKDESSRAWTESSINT
D(3) dopamine receptor, sequence (P35462 whole entry): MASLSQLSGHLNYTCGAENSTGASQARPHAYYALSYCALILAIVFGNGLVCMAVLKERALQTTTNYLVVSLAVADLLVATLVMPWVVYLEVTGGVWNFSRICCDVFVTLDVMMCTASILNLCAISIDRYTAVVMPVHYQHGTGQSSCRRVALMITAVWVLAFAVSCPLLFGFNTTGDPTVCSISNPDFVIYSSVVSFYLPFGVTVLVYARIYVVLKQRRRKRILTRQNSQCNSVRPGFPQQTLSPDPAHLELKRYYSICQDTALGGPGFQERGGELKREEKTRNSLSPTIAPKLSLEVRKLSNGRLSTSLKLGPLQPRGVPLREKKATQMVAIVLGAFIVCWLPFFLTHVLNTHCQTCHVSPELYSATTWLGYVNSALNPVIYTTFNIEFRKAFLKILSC
Melanocortin receptor 4, sequence (P32245 whole entry): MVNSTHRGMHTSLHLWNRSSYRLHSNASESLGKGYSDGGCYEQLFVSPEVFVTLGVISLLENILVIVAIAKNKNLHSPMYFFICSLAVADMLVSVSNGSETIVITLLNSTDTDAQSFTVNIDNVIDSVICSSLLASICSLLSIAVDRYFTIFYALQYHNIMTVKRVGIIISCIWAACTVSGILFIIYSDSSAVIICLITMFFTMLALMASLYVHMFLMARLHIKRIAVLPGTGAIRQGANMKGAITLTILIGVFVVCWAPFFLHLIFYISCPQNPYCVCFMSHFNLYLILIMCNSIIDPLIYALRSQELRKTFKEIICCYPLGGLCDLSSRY

Take `C[C@@H](NCCCc1cccc(C(F)(F)F)c1)c1cccc2ccccc12`: the AC50 in assay [1] is more than 1 µM; in assay [2] it was 10 µM; in [3] it was more than 10 µM; in [4], more than 30 µM; in assay [5], 1.5 µM; in assay [6], more than 30 µM. Further, the AC50 in [7], in assay [8], in [9], in [10] and in [11] was more than 30 µM in each case.

`O=C(O)COc1ccc(C(=O)c2cccs2)c(Cl)c1Cl` returned an AC50 in [12] of more than 30 µM.

As to `CCN1CCN(Cc2ccc(Nc3ncc(F)c(-c4cc(F)c5nc(C)n(C(C)C)c5c4)n3)nc2)CC1` [ABEMACICLIB], the AC50 in [1], in assay [2], in assay [4], in [5], in assay [6] and in assay [7] was more than 30 µM each time. Further, the AC50 in assay [8], in assay [9], in [10] and in assay [11] was more than 30 µM in each case.

In assay [12], `CN(C)[C@@H]1C(O)=C(C(N)=O)C(=O)[C@@]2(O)C(O)=C3C(=O)c4c(O)ccc(Cl)c4[C@@](C)(O)[C@H]3C[C@@H]12` [CHLORTETRACYCLINE] had an AC50 of more than 30 µM.

As for `O=C1CCc2cc(OCCCCc3nnnn3C3CCCCC3)ccc2N1` [CILOSTAZOL], the AC50 in assay [13], in assay [1], in assay [2], in [3], in assay [4] and in [5] was more than 30 µM in each case. Moreover, the AC50 in [7] is more than 30 µM; in assay [8], more than 30 µM; in assay [9], 0.424 µM; in assay [10], more than 30 µM; in assay [11] it was more than 30 µM.

In the case of `C[C@@H](Oc1cc(-c2cnn(C3CCNCC3)c2)cnc1N)c1c(Cl)ccc(F)c1Cl` [CRIZOTINIB], the AC50 in assay [13] is 19.8 µM; in assay [2], 13.9 µM; in [3] it was 8.44 µM; in assay [4], more than 30 µM; in assay [5], more than 30 µM; in [6], more than 30 µM. In addition, the AC50 in [7] is 29 µM; in [8] it was more than 30 µM; in assay [9], more than 30 µM; in assay [10] it was 8.2 µM; in [11], 30 µM.

Consider `C[C@H]1O[C@@H](n2cc(F)c(=O)[nH]c2=O)[C@H](O)[C@@H]1O` [DOXIFLURIDINE], for which the AC50 in assay [12] was more than 30 µM.

For `CN(C)CCC[C@@]1(c2ccc(F)cc2)OCc2cc(C#N)ccc21` [ESCITALOPRAM], the AC50 in [1], in assay [2], in assay [3], in [4], in [6] and in [7] was more than 30 µM throughout. Moreover, the AC50 in assay [9], in assay [10] and in assay [11] was more than 30 µM throughout.

On to `C#C[C@]1(O)CC[C@H]2[C@@H]3CCC4=CC(=O)CC[C@@H]4[C@H]3C(=C)C[C@@]21CC` [ETONOGESTREL], for which the AC50 in assay [4], in [5], in assay [8], in assay [9] and in [11] was more than 30 µM each time.

In the case of `CC(CCc1ccccc1)NCC(O)c1ccc(O)c(C(N)=O)c1` (configuration not stated) [LABETALOL], the AC50 in [12] is more than 30 µM.

In [12], `C[N+](C)(C)C[C@H](O)CC(=O)[O-]` [LEVOCARNITINE] displayed an AC50 of more than 30 µM.

For `CN(CC1(C)CCCO1)S(=O)(=O)c1ccc(Cl)c(S(N)(=O)=O)c1` (configuration not stated) [MEFRUSIDE], the AC50 in [4], in assay [5], in [8], in assay [9] and in assay [11] was more than 30 µM each time.

In the case of `CC(C)c1nc(N(C)S(C)(=O)=O)nc(-c2ccc(F)cc2)c1/C=C/[C@@H](O)C[C@@H](O)CC(=O)O` [ROSUVASTATIN], the AC50 in assay [1], in assay [2], in [3], in assay [4], in [5] and in assay [6] was more than 30 µM each time. In addition, the AC50 in [7], in assay [8], in [9], in assay [10] and in [11] was more than 30 µM in each case.

Turning to `OC[C@H]1O[C@@](CO)(O[C@H]2O[C@H](CO)[C@@H](O)[C@H](O)[C@H]2O)[C@@H](O)[C@@H]1O` [SUCROSE], the AC50 in assay [1], in assay [2], in [3], in assay [4], in assay [5] and in [6] was more than 30 µM in each case. For the same molecule, the AC50 in assay [7], in assay [8], in assay [9], in assay [10] and in assay [11] was more than 30 µM in each case.

For the molecule `C[C@]1(Cn2ccnn2)[C@H](C(=O)O)N2C(=O)C[C@H]2S1(=O)=O` [TAZOBACTAM], in assay [12], the AC50 is more than 30 µM.

In the case of `CC(S)C(=O)NCC(=O)O` (configuration not stated) [TIOPRONIN], the AC50 in [1], in [2], in assay [4], in assay [5], in assay [6] and in [7] was more than 30 µM each time. The AC50 in assay [8] was more than 30 µM; in [9], more than 30 µM; in assay [10], 3.3 µM; in assay [11], more than 30 µM.

In the case of `CC1=C(/C=C/C(C)=C/C=C/C(C)=C/C(=O)O)C(C)(C)CCC1` [TRETINOIN], in assay [12], the concentration at half-maximal activity (AC50) is more than 30 µM.

As to `C[C@H](CCC(=O)O)[C@H]1CC[C@H]2[C@@H]3[C@@H](O)C[C@@H]4C[C@H](O)CC[C@]4(C)[C@H]3CC[C@]12C` [URSODIOL], the AC50 in assay [1], in assay [2], in assay [4], in assay [5], in assay [6] and in assay [7] was more than 30 µM throughout. In addition, the concentration at half-maximal activity (AC50) in assay [8], in assay [9], in [10] and in assay [11] was more than 30 µM each time.

Take `CCCC(CCC)C(=O)O` [VALPROIC ACID]: the AC50 in [13] was more than 30 µM; in assay [1] it was more than 10 µM; in [2], more than 30 µM; in [3], more than 30 µM; in assay [5], 4.7 µM; in assay [6], more than 30 µM. Besides, the AC50 is more than 30 µM in assay [7]; more than 10 µM in [8]; more than 30 µM in assay [9]; more than 30 µM in assay [10]; more than 10 µM in [11].
